Consider eleven compounds from PubChem BioAssay AID1350 (Sanford-Burnham Center for Chemical Genomics, 2008).

Active and inactive are the calls of the source.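 Rule for the calls: active = wells where survival under tumor necrosis factor attack stays above 50% of untreated control at 25 µM; inactive = the rest.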

The experiment has as its system CSM14.1 TNF/CHX-induced death, ATPlite luminescence, 24 h. The experiment in a line: TNF extrinsic death rescue in CSM14.1 – cell-based, undifferentiated CSM14.1, ATP luminescence, selectivity assay for ER stress death inhibitor project, SAR follow-up (AID 1350). Conditions: at 25 µM; hits give high values.

For the compound `COc1ccc(C2CC(=O)C3=C(C2)Nc2ccccc2NC3c2cc(C)ccc2C)cc1` (stereo unspecified), the survival is 39% (inactive). With `COc1ccc(C2CC(=O)C3=C(C2)Nc2ccccc2NC3c2cccc(Oc3ccccc3)c2)cc1OC` (stereo unspecified), the survival was 39% (inactive). Next, `CCOc1cccc(C2Nc3ccccc3NC3=C2C(=O)CC(c2ccc(OC)cc2)C3)c1` (stereo unspecified): 40% (inactive). As to `CCCOc1ccc(C2Nc3ccccc3NC3=C2C(=O)CC(c2ccc(OC)c(OC)c2)C3)cc1` (stereo unspecified), the survival is 45% (inactive). As for `COc1ccc(C2CC(=O)C3=C(C2)Nc2ccccc2NC3c2cccc(Br)c2)cc1OC` (stereo unspecified), the survival is 38% (inactive). With `CC1(C)CC(=O)C2=C(C1)Nc1ccccc1NC2c1ccc(-c2ccccc2)cc1` (stereo unspecified), the survival is 46% (inactive). Regarding `COc1ccc(C2CC(=O)C3=C(C2)Nc2ccccc2NC3c2ccccc2C(F)(F)F)cc1OC` (stereo unspecified), the survival was 37% (inactive). To `COc1ccc(C2CC(=O)C3=C(C2)Nc2ccccc2NC3c2cccc(C(F)(F)F)c2)cc1OC` (stereo unspecified) belongs 37% (inactive); to `O=C1CC(c2ccccc2)CC2=C1C(c1c(F)cccc1Cl)Nc1ccccc1N2` (stereo unspecified), 32% (inactive). In the case of `CCOc1cc(C2Nc3ccccc3NC3=C2C(=O)CC(c2ccc(OC)cc2)C3)cc(Cl)c1O` (stereo unspecified), the survival was 33% (inactive). Next, `CSc1ccc(C2Nc3ccccc3NC3=C2C(=O)CC(c2ccccc2)C3)cc1` (stereo unspecified): 43% (inactive).
